Results published in PMC8745299, “Generation of Lasso Peptide-Based ClpP Binders” (International Journal of Molecular Sciences, 2021).
Bridge positions count the residues as written; N and C are the ends. Square brackets hold non-standard residues; d marks the D form. Ends that are not written are not given here. Peptide text beside a SMILES is read from it. * marks the point of attachment. Phe(3,5-F2) = N[C@@H](Cc1cc(F)cc(F)c1)C(=O)O; Pro(4R-Me) = C[C@H]1CN[C@H](C(=O)O)C1; Propanoyl(3-cHex) = O=C(CCC1CCCCC1)*; NMeA = CN[C@@H](C)C(=O)O

Columns and labels:
BsClpP = molecular target: T1, BsClpP (Bacillus subtilis, UniProt P80244); assay: BsClpP peptidase activity, preparation not specified; assay type: biochemical, B. subtilis; conditions: summary in discussion
T1 construct: His-tag (C); made in house; host or cells: E. coli BL21 (DE3)
Protocol: (§1) Peptide degradation assays were performed in black flat-bottom 96-well plates with a total reaction volume of 100 μL and reaction temperatures of 32 °C and 37 °C for SaClpP and BsClpP, respectively. Stock solutions of ADEP2 and MccJ25 WT or variants were dissolved in DMSO and pre-diluted to 100× of the final concentration. Accordingly, 1 μL of the respective stock solution was placed at the bottom of the wells. […] 50 μL of a 2× enzyme solution (final assay concentration: 1 μM) in activity buffer was added to the plate and incubated for 15 min at 32 °C and 37 °C for SaClpP and BsClpP activity assays, respectively. The enzyme reaction was started by addition of 49 μL of a solution of the fluorogenic model peptide substrate Suc-Leu-Tyr-AMC in activity buffer at a final concentration of 200 μM. For SaClpP assays, the activity buffer was comprised of 100 mM NaCl and 100 mM HEPES at pH 7. BsClpP activity buffer (50 mM Tris-HCl, 25 mM MgCl2, 200 mM KCl, 2 mM DTT, pH 8) was used in BsClpP assays as well as in SaClpP experiments, where the buffer composition was supposed to lead to oligomeric breakdown of the SaClpP tetradecamer to allow testing the activity retaining effect of ClpP agonists. The fluorescence read-out was measured using a Tecan (Crailsheim, Germany) M200Pro plate reader (excitation/emission: 380/460 nm) every 30–60 s for 1 h. Enzyme velocity was determined by linear regression of the initial segment of the fluorescence-time plot in GraphPad Prism 5 (GraphPad Software, San Diego, CA, USA). All assays were performed in triplicate and repeated at least two times.

[1] = cited from earlier work
Source text: MccJ25 is exceptionally stable, even for lasso peptide standards.

Enterobacteriaceae = conditions: cited from earlier work
Source text: (§2) Microcin J25 (MccJ25) is the most well-studied lasso peptide (Figure 2A). […] MccJ25 enters its target cells through hijacking the TonB-dependent siderophore receptor FhuA [8, 19, 20] which explains its narrow activity spectrum. MccJ25 originates from Escherichia coli AY25 [13] and thus can be produced very well heterolo ...

[2] = test system: Gram-negative RNA polymerase; conditions: blocking of NTP uptake channel; cited from earlier work
Source text: as §2

thermolysin = conditions: cleavage e.g. between Phe10 and Val11; gas phase and solution; cited from earlier work
SaClpP [3] = molecular target: T2, SaClpP (Staphylococcus aureus, UniProt Q2G036); assay: Peptide (Suc-LY-AMC) degradation by SaClpP in destabilizing Tris buffer pH 8; assay type: biochemical, S. aureus; set-up: Strep-tag (C); made in house; host or cells: E. coli BL21 (DE3)
T2 sequence (Q2G036 1-195): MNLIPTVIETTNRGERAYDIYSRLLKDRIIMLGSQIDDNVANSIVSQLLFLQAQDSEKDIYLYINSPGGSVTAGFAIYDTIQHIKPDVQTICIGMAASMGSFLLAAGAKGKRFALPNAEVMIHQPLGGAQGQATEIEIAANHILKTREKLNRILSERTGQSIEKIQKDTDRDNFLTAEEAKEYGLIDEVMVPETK
Source text: (§3) In order to assess the different MccJ25 variants, we first chose S. aureus ClpP (SaClpP) as a model peptidase and performed in vitro degradation assays with the fluorogenic model peptide substrate Suc-LY-AMC. […] To investigate whether the MccJ25 variants can exert a stabilizing effect on the oligomeric structure of tetradecameric SaClpP, we conducted peptide degradation assays under destabilizing conditions employing a Tris buffer at pH 8.
This experimental setup was then used to differentiate the MccJ25 variants regarding their effect on ClpP stability. […] The apparent affinity constant was deduced from enzyme activity assays and represents the effector molecule concentration at half maximal stimulation of enzyme activity (the lower the apparent affinity constant, the higher the affinity). To exclude that 12IGF serves as a SaClpP substrate, we incubated a mixture of SaClpP and 12IGF under assay conditions for up to 260 min.
as §1

SaClpP [4] = molecular target: T2, SaClpP; assay: Peptide (Suc-LY-AMC) degradation by SaClpP in HEPES buffer pH 7; assay type: biochemical, S. aureus; set-up: Strep-tag (C); made in house; host or cells: E. coli BL21 (DE3); conditions: Figure 4A
Protocol: as §3
Peptide degradation assays were performed in black flat-bottom 96-well plates with a total reaction volume of 100 μL and reaction temperatures of 32 °C and 37 °C for SaClpP and BsClpP, respectively. Stock solutions of ADEP2 and MccJ25 WT or variants were dissolved in DMSO and pre-diluted to 100× of the final concentration. Accordingly, 1 μL of the respective stock solution was placed at the bottom of the wells. […] 50 μL of a 2× enzyme solution (final assay concentration: 1 μM) in activity buffer was added to the plate and incubated for 15 min at 32 °C and 37 °C for SaClpP and BsClpP activity assays, respectively. […] The fluorescence read-out was measured using a Tecan (Crailsheim, Germany) M200Pro plate reader (excitation/emission: 380/460 nm) every 30–60 s for 1 h. Enzyme velocity was determined by linear regression of the initial segment of the fluorescence-time plot in GraphPad Prism 5 (GraphPad Software, San Diego, CA, USA). […]

SaClpP [5] = molecular target: T2, SaClpP; assay: Analytical gel filtration, SaClpP oligomeric state; set-up: Strep-tag (C); made in house; host or cells: E. coli BL21 (DE3); conditions: Superdex 200, Tris buffer pH 8, representative experiment from three repetitions
SaClpP [6] = molecular target: T2, SaClpP; assay: biochemical; set-up: Strep-tag (C); made in house; host or cells: E. coli BL21 (DE3)
Protocol: Casein degradation assays were performed analogous to peptide degradation assays. Fluorescein-labelled casein (FITC-casein) was employed at final concentrations of 20 μM in the respective activity buffers (see peptide degradation assay). 1 μL of a 100× stock solution of ADEP2 in DMSO was placed at the bottom of the wells followed by the addition of a 2× SaClpP or BsClpP enzyme solution (1 μM final concentration, unless noted otherwise). The mixture was incubated at 32 °C or 37 °C for 15 min and then the reaction was started by the addition of a 2× FITC-casein solution in the corresponding activity buffer. The fluorescence read-out was measured using a Tecan (Crailsheim, Germany) M200Pro plate reader employing an excitation wavelength of 485 nm and an emission wavelength of 535 nm. Enzyme velocity was acquired by linear regression of the initial segment of the fluorescence graph and plotted against ADEP2 concentration. All assays were performed in duplicate or triplicate.

SaClpP [7] = molecular target: T2, SaClpP; set-up: Strep-tag (C); made in house; host or cells: E. coli BL21 (DE3); conditions: ADEP2 vs natural product ADEP1; ref not given; cited from earlier work
Source text: Figure 3 Grafting of the hydrophobic tripeptide binding motifs onto the MccJ25 lasso peptide scaffold. (A) Schematic of the ClpP tetradecamer and the complete Clp protease complex, i.e., ClpP in concert with ClpX. The interaction between ClpP and the ClpX ATPase occurs between protruding flexible loops of ClpX, carrying the conserved tripeptide motif (L/I/V)-G-(F/L), and the H-pockets of ClpP. The H-pockets are located between two adjacent monomers of ClpP. In the ClpXP complexes of S. aureus and B. subtilis, which we used for our biochemical assays, the respective motif is IGF. (B) The IGF tr ...

[8] = test system: ClpPs from different organisms; conditions: fully assembled ClpX hexamer; cited from earlier work
Source text: ClpX carries six coupled IGF motifs in a rather favorable orientation.

T1 sequence (P80244 whole entry): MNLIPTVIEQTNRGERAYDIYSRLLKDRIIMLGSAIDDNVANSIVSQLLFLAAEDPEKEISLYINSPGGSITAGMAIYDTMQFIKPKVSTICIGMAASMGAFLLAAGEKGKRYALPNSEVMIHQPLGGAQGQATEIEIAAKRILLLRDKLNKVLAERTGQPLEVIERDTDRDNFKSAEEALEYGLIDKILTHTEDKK

microcin J25 (GGAGHVPEYFVGIGTPISFYG; lactam N-8; also: lasso topology, tail threaded through ring) [WT MccJ25, wild type lasso peptide from Escherichia coli AY25]
effect on BsClpP activity (BsClpP): neither WT MccJ25 nor several of the other mutated variants constructed in this study affected either of the ClpPs | thermal stability [1]: withstand autoclaving at 120 °C | antibiotic activity (Enterobacteriaceae): exhibits antibiotic activity against Enterobacteriaceae | RNA polymerase inhibition [2]: inhibition of the Gram-negative RNA polymerase | stability of [2]rotaxane after loop hydrolysis by thermolysin (thermolysin): does not cause ring and tail to dissociate | SaClpP peptidase activity retained in Tris buffer (SaClpP [3]; Tris buffer pH 8, 46 μM lasso peptide (Figure 4C), 32 °C, three independent experiments): only the three variants carrying the canonical tripeptide motif at positions 12–14 were able to retain SaClpP activity in Tris buffer | effect on SaClpP activity (SaClpP [3]; summary in discussion): neither WT MccJ25 nor several of the other mutated variants constructed in this study affected either of the ClpPs

C[C@@H]1C[C@H]2C(=O)OC[C@H](NC(=O)[C@H](Cc3cc(F)cc(F)c3)NC(=O)CCC3CCCCC3)C(=O)N3CCC[C@H]3C(=O)N(C)[C@@H](C)C(=O)N[C@@H](C)C(=O)N2C1 [ADEP2] ({Propanoyl(3-cHex)}-[Phe(3,5-F2)]SP[NMeA]A[Pro(4R-Me)]; ester 2-C)
SaClpP peptidase activity retained in the presence of ADEP2 (SaClpP [3]; Tris buffer pH 8, Figure 4A): a substantial extent of the original activity (observed in the favorable HEPES buffer at pH 7) was retained in the presence of ADEP2 | SaClpP peptidase activity enhancement (SaClpP [4]): enhanced weakly | SaClpP tetradecamer integrity (SaClpP [5]): Inactivation by oligomeric breakdown in Tris buffer at pH 8 can be circumvented by the addition of ADEP2 | EC50 (SaClpP [6]): 304 ± 179 nM | affinity for SaClpP (SaClpP [7]): increased affinity for SaClpP

ClpX: Clp-ATPase ClpX hexamer carrying six coupled IGF motifs
ClpP affinity relative to ADEP2 [8]: weaker affinities than ADEP2
